Patent publication US9273057B2 (Bristol-Myers Squibb Company, priority 2012, dated 2016)

Target: CK2A1 (CK2α/β) (Homo sapiens, UniProt P68400)
Assay: CK2 kinase assay, CK2A1 (CK2α/β)
Format: biochemical
Conditions: Table A; read-out: CK2A1 (CK2α/β) (IC50)

Chain of CK2A1 (CK2α/β) (P68400 whole entry, species assumed): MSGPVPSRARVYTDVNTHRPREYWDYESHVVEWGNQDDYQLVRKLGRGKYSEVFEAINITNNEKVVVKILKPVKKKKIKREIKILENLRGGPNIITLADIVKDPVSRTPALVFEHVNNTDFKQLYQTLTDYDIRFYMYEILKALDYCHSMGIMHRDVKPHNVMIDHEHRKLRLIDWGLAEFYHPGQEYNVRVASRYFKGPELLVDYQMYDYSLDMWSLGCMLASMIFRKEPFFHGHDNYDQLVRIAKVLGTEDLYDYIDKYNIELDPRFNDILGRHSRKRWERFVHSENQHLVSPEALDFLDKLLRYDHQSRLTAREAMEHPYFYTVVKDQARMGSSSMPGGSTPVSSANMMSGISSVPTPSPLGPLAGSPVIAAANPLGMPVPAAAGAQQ
Chain of CK2A1 (CK2α/β) (P67870 whole entry partner, species assumed): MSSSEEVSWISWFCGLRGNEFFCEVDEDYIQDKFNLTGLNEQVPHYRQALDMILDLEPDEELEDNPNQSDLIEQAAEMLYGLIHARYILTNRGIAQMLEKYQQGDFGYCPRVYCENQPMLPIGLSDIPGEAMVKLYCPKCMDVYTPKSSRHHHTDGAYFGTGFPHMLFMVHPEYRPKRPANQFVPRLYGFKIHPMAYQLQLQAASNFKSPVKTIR

Row | IC50 | Compound
1 | 1.12 nM | C[C@H](O)C(=O)N1CC2(CCN(c3cc(C#N)cc(Nc4nc(NC5CC5)c5ncc(C#N)n5n4)c3Cl)CC2)C1 [Example 795, (S)-2-((2-chloro-5-cyano-3-(2-(2-hydroxypropanoyl)-2,7-diazaspiro[3.5]nonan-7-yl)phenyl)amino)-4-(cyclopropylamino)imidazo[2,1-f][1,2,4]triazine-7-carbonitrile]
2 | 1.4 nM | N#Cc1cc(Nc2nc(NC3CC3)c3ncc(C#N)n3n2)c(Cl)c(N2CCN(C3CN(C(=O)C4CNCCO4)C3)CC2)c1 (stereo not shown) [Example 489, 2-[(2-chloro-5-cyano-3-{4-[1-(morpholine-2-carbonyl)azetidin-3-yl]piperazin-1-yl}phenyl)amino]-4-(cyclopropylamino)imidazo[2,1-f][1,2,4]triazine-7-carbonitrile]
3 | 2.12 nM | COC1CCN(C2CN(c3cc(C(F)F)cc(Nc4nc(NC5CC5)c5ncc(C#N)n5n4)c3Cl)C2)CC1 [Example 260, 2-((2-chloro-5-(difluoromethyl)-3-(3-(4-methoxy-1-piperidinyl)-1-azetidinyl)phenyl)amino)-4-(cyclopropylamino)imidazo[2,1-f][1,2,4]triazine-7-carbonitrile]
4 | 6 nM | COC(=O)N[C@H]1CCN(c2cc(C#N)cc(Nc3nc(NC4CC4)c4ncc(C#N)n4n3)c2Cl)C[C@@H]1OC(=O)CN [Example 193, (3S,4S)-1-(2-chloro-5-cyano-3-((7-cyano-4-(cyclopropylamino)imidazo[2,1-f][1,2,4]triazin-2-yl)amino)phenyl)-4-((methoxycarbonyl)amino)-3-piperidinyl glycinate]
5 | 0.53 nM | CCNc1nc(Nc2cc(C#N)cc(N3CC[C@@H](NC(=O)OC)[C@H](O)C3)c2F)nn2c(C#N)cnc12 [Example 381, methyl ((3R,4R)-1-(5-cyano-3-((7-cyano-4-(ethylamino)imidazo[2,1-f][1,2,4]triazin-2-yl)amino)-2-fluorophenyl)-3-hydroxypiperidin-4-yl)carbamate]
6 | 1.54 nM | N#Cc1cc(Nc2nc(NC3CC3)c3ncc(C#N)n3n2)c(Cl)c(N2CCN(C(=O)CN3CCC3)CC2)c1 [Example 584, 2-[(3-{4-[2-(azetidin-1-yl)acetyl]piperazin-1-yl}-2-chloro-5-cyanophenyl)amino]-4-(cyclopropylamino)imidazo [2,1-f][1,2,4]triazine-7-carbonitrile]
7 | 0.88 nM | CCNc1nc(Nc2cc(C#N)cc(C3CCN(C)CC3)c2Cl)nn2c(C#N)cnc12 [Example 351, 2-((2-chloro-5-cyano-3-(1-methyl-4-piperidinyl)phenyl)amino)-4-(ethylamino)imidazo[2,1-f][1,2,4]triazine-7-carbonitrile]
8 | 0.85 nM | CCNc1nc(Nc2cc(C#N)cc(N3CCOC(C(C)(C)O)C3)c2Cl)nn2c(C#N)cnc12 (racemic) [Example 361, (+/−) 2-((2-chloro-5-cyano-3-(2-(1-hydroxy-1-methylethyl)-4-morpholinyl)phenyl)amino)-4-(ethylamino)imidazo[2,1-f][1,2,4]triazine-7-carbonitrile]
9 | 1.62 nM | CCNc1nc(Nc2cc(C#N)cc(N3CC[C@@H](NC(=O)OC)[C@@H](NC4COC4)C3)c2Cl)nn2c(C#N)cnc12 [Example 747, methyl ((3S,4R)-1-(2-chloro-5-cyano-3-((7-cyano-4-(ethylamino)imidazo[2,1-f][1,2,4]triazin-2-yl)amino)phenyl)-3-(oxetan-3-ylamino)piperidin-4-yl)carbamate]
10 | 1.5 nM | N#Cc1cc(CNCC2CC2)c(Cl)c(Nc2nc(NC3CC3)c3ncc(C#N)n3n2)c1 [Example 470]
11 | 1.68 nM | CN1CCC(N2CC(c3cc(C#N)cc(Nc4nc(NC5CC5)c5ncc(C#N)n5n4)c3Cl)C2)CC1 [Example 357, 2-((2-chloro-5-cyano-3-(1-(1-methylpiperidin-4-yl)azetidin-3-yl)phenyl)amino)-4-(cyclopropylamino)imidazo[2,1-f][1,2,4]triazine-7-carbonitrile]
12 | 2 nM | COC(=O)NC1CCN(c2cc(C#N)cc(Nc3nc(NC4CC4)c4ncc(C#N)n4n3)c2Cl)C[C@@H]1N(C)CC#N (stereo in doubt) [Example 764, methyl N-[(3S,4S)-1-(2-chloro-5-cyano-3-{[7-cyano-4-(cyclopropylamino)imidazo [2,1-f][1,2,4]triazin-2-yl]amino}phenyl)-3-[(cyanomethyl)(methyl)amino]piperidin-4-yl]carbamate]
13 | 0.97 nM | CC1(O)CN(C2CCN(c3cc(C(F)F)cc(Nc4nc(NC5CC5)c5ncc(C#N)n5n4)c3Cl)CC2)C1 [Example 257, 2-((2-chloro-5-(difluoromethyl)-3-(4-(3-hydroxy-3-methyl-1-azetidinyl)-1-piperidinyl)phenyl)amino)-4-(cyclopropylamino)imidazo[2,1-f][1,2,4]triazine-7-carbonitrile]
14 | 0.88 nM | N#Cc1cc(Nc2nc(NC3CC3)c3ncc(C#N)n3n2)c(Cl)c(N2CC[C@@H](NC(=O)N3CCOCC3)[C@H](O)C2)c1 (racemic) [Example 181, (+/−)-N-((3R,4R)-1-(2-chloro-5-cyano-3-((7-cyano-4-(cyclopropylamino)imidazo[2,1-f][1,2,4]triazin-2-yl)amino)phenyl)-3-hydroxypiperidin-4-yl)morpholine-4-carboxamide]
15 | 2.11 nM | CC1(C(=O)N2CCN(c3cc(C(F)F)cc(Nc4nc(NC5CC5)c5ncc(C#N)n5n4)c3Cl)CC2)COC1 [Example 273, 2-((2-chloro-5-(difluoromethyl)-3-(4-((3-methyl-3-oxetanyl)carbonyl)-1-piperazinyl)phenyl)amino)-4-(cyclopropylamino)imidazo[2,1-f][1,2,4]triazine-7-carbonitrile]
16 | 0.68 nM | CCNc1nc(Nc2cc(C#N)cc(NCCO)c2Cl)nn2c(C#N)cnc12 [Example 630, 2-((2-chloro-5-cyano-3-((2-hydroxyethyl)amino)phenyl)amino)-4-(ethylamino)imidazo[2,1-f][1,2,4]triazine-7-carbonitrile]
17 | 0.35 nM | CC(C)(O)[C@@H]1CN(c2cc(C#N)cc(Nc3nc(NC4CC4)c4ncc(C#N)n4n3)c2Cl)CCO1 [Example 37, 2-((2-chloro-5-cyano-3-((2S)-2-(1-hydroxy-1-methylethyl)-4-morpholinyl)phenyl)amino)-4-(cyclopropylamino)imidazo [2,1-f][1,2,4]triazine-7-carbonitrile]
18 | 1.82 nM | CC(C)(O)CN[C@@H]1CCCN(c2cc(C#N)cc(Nc3nc(NC4CC4)c4ncc(C#N)n4n3)c2Cl)C1 [Example 43, 2-((2-chloro-5-cyano-3-((3R)-3-((2-hydroxy-2-methylpropyl)amino)-1-piperidinyl)phenyl)amino)-4-(cyclopropylamino)imidazo [2,1-f][1,2,4]triazine-7-carbonitrile]
19 | 2.82 nM | N#Cc1cc(Nc2nc(NC3CC3)c3ncc(C#N)n3n2)c(Cl)c(C(O)C2CCN(C3COC3)CC2)c1 (stereo not shown) [Example 655, 2-((2-chloro-5-cyano-3-(hydroxy(1-(oxetan-3-yl)piperidin-4-yl)methyl)phenyl)amino)-4-(cyclopropylamino)imidazo[2,1-f][1,2,4]triazine-7-carbonitrile]
20 | 1.17 nM | COC(=O)N[C@H]1CN(c2cc(C#N)cc(Nc3nc(NC4CC4)c4ncc(C#N)n4n3)c2Cl)C[C@H]1CF [Example 287, methyl ((3R,4R)-1-(2-chloro-5-cyano-3-((7-cyano-4-(cyclopropylamino)imidazo[2,1-f][1,2,4]triazin-2-yl)amino)phenyl)-4-(fluoromethyl)-3-pyrrolidinyl)carbamate]
21 | 3.92 nM | N#Cc1cc(Nc2nc(NC3CC3)c3ncc(C#N)n3n2)c(Cl)c(N2CCN(C3CN(C(=O)C4(N)CC4)C3)CC2)c1 [Example 500, 2-[(3-{4-[1-(1-aminocyclopropanecarbonyl)azetidin-3-yl]piperazin-1-yl}-2-chloro-5-cyanophenyl)amino]-4-(cyclopropylamino)imidazo[2,1-f][1,2,4]triazine-7-carbonitrile]
22 | 0.53 nM | N#Cc1cc(Nc2nc(NC3CC3)c3ncc(C#N)n3n2)c(Cl)c(N2CCN(C(=O)Cn3ccnc3)CC2)c1 [Example 97, 2-((2-chloro-5-cyano-3-(4-(1H-imidazol-1-ylacetyl)-1-piperazinyl)phenyl)amino)-4-(cyclopropylamino) imidazo[2,1-f][1,2,4] triazine-7-carbonitrile]
23 | 2.07 nM | CN1CCN(c2cc(C#N)cc(Nc3nc(NC4CC4)c4ncc(C#N)n4n3)c2Cl)C(=O)C1 [Example 618, 2-((2-chloro-5-cyano-3-(4-methyl-2-oxopiperazin-1-yl)phenyl)amino)-4-(cyclopropylamino)imidazo[2,1-f][1,2,4]triazine-7-carbonitrile]
24 | 2.95 nM | COC(=O)Nc1cc(Nc2nc(NC3CC3)c3ncc(C#N)n3n2)c(Cl)c(N2CC(N3CCOCC3)C2)c1 [Example 201, methyl (4-chloro-3-((7-cyano-4-(cyclopropylamino)imidazo[2,1-f][1,2,4]triazin-2-yl)amino)-5-(3-(4-morpholinyl)-1-azetidinyl)phenyl)carbamate]
25 | 0.32 nM | CCNc1nc(Nc2ccc3c(c2)c(C#N)cn3C2CCN([C@H]3COC[C@@H]3O)CC2)nn2c(C#N)cnc12 [Example 826, 2-((3-cyano-1-(1-((3S,4R)-4-hydroxytetrahydrofuran-3-yl)piperidin-4-yl)-1H-indol-5-yl)amino)-4-(ethylamino)imidazo[2,1-f][1,2,4]triazine-7-carbonitrile]
26 | 0.65 nM | COC(=O)N1CCN(C2CN(c3cc(C#N)cc(Nc4nc(NC5CC5)c5ncc(C#N)n5n4)c3Cl)C2)CC1 [Example 153, methyl 4-(1-(2-chloro-5-cyano-3-((7-cyano-4-(cyclopropylamino)imidazo [2,1-f][1,2,4]triazin-2-yl)amino)phenyl)-3-azetidinyl)-1-piperazinecarboxylate]
27 | 1.22 nM | N#Cc1cc(Nc2nc(NC3CC3)c3ncc(C#N)n3n2)c(Cl)c([C@H]2CCC[C@@H](N3CC(O)C3)C2)c1 (single isomer, unassigned) [Example 730]
28 | 0.9 nM | CCNc1nc(Nc2cc(C#N)cc(N3CC[C@@H](NC(=O)OC)[C@H](N(C)C4COC4)C3)c2Cl)nn2c(C#N)cnc12 [Example 750, methyl ((3R,4R)-1-(2-chloro-5-cyano-3-((7-cyano-4-(ethylamino)imidazo[2,1-f][1,2,4]triazin-2-yl)amino)phenyl)-3-(methyl(oxetan-3-yl)amino)piperidin-4-yl)carbamate]
